Measurements from PMC4110071, “DevR (DosR) mimetic peptides impair transcriptional regulation and survival of Mycobacterium tuberculosis under hypoxia by inhibiting the autokinase activity of DevS sensor kinase” (BMC Microbiology, 2014).
Where two headings read alike, the source gives them in different places.

Experiments:
[1] = tested on: DevS201 (cytoplasmic domain of DevS sensor kinase); assay: DevS201 autokinase (autophosphorylation) assay, high-throughput filtration format; type: biochemical, Mycobacterium tuberculosis; conditions: for inhibition of DevS autokinase activity (in words): Pep peptides at 3 mM and 5 mM, preincubated with DevS201 (15 μM) 30 mins at 25°C, three independent experiments, poor reproducibility due to protein aggregation; for % Inhibition of autokinase activity: mean of three independent experiments, 0 = lack of inhibition
[2] = tested on: Rv3134c promoter (DevR-dependent); type: cell-based, Mycobacterium tuberculosis; conditions: for % Inhibition of reporter activity, Rv3134c promoter: hypoxic, mean of two independent experiments; for inhibition of Rv3134c promoter activity: peptides at 2.5 and 5 mM, two independent experiments
[3] = tested on: sigA promoter (not regulated by DevR); type: cell-based, Mycobacterium tuberculosis; conditions: for % Inhibition of reporter activity, sigA promoter: peptide 5 mM, 0 = no detectable inhibition
[4] = tested on: M. tuberculosis; type: cell-based, Mycobacterium tuberculosis; conditions: aerobic cultures; with respect to the DMSO control; two independent experiments
[5] = tested on: M. tb H37Rv; assay: REMA, aerobic Resazurin reduction assay; type: cell-based, Mycobacterium tuberculosis; conditions: 64 h at 37°C, Resazurin fluorescence, two independent experiments
[6] = tested on: HepG2 (human liver hepatocellular carcinoma); type: cell-based; conditions: HepG2 cells; MTT; 5 mM and 2.5 mM peptide; 48 h; relative to the DMSO vehicle control; duplicate values
Method: (§1) Figure 6 Cytotoxicity of peptides. Percentage cytotoxicity due to exposure to peptides was assessed in HepG2 and CHO cell lines using the MTT assay. The cells were exposed to DevRS A-ext and DevRS D peptides at 2.5 mM and 5 mM concentration in 96-well plate format for 48 h. Percentage cytotoxicity is shown with respect to the DMSO control as mean ± SD for duplicate values.
(§2) The cytotoxicity of DevRS1 peptide was assessed in CHO (Chinese hamster ovary cells) and HepG2 (human liver hepatocellular carcinoma) cell lines. Both the cell lines were maintained in DMEM supplemented with 10% FBS at 37°C in 5% CO2. Approximately, 10^4 cells were seeded per well in a 96-well plate and incubated at 37 °C for 12–16 h. The peptides were diluted in 125 μl DMEM and added onto cells (final volume 250 μl per well, 2.5 and 5 mM final peptide concentrations), and the plate was incubated at 37°C in 5% CO2 for 48 h. Subsequently, 20 μl of MTT (Sigma 5 μg μl^-1) was added and incubated for 4–5 h at 37°C. Following incubation, media was discarded and the formazan crystals were solubilized by adding 200 μl DMSO and the absorbance measured at A560 nm. The percentage toxicity was calculated as: […]

[7] = tested on: CHO (Chinese hamster ovary cells); type: cell-based; conditions: MTT, 5 mM and 2.5 mM peptide, 48 h, relative to the DMSO vehicle control, duplicate values
Method: as §1, §2

[8] = tested on: DevS ~ P to DevR phosphotransfer; assay: In vitro phosphotransfer assay from DevS~P to DevR; type: biochemical, Mycobacterium tuberculosis; conditions: data not shown
Method: To study the phosphotransfer reaction, DevS201 (15 μM final concentration) was phosphorylated for 60 mins as described above. Subsequently, full-length DevR or DevRN protein (1–144 amino acid residues, 20 μM final concentration) was added to the phosphorylated DevS201 mix, and the reaction was incubated at 25°C for 2 mins. The reaction was terminated with 10 μl of 2X stop buffer (100 mM Tris-Cl, pH 6.8, 20% glycerol, 2% SDS, 280 mM β-mercaptoethanol, 0.01% bromophenol blue) and the samples were resolved on SDS-PAGE. The gel was rinsed in water and subjected to autoradiography.

HNTRGEE [Pep A]
inhibition of DevS autokinase activity (in words) ([1]; then ATP 1 h): inhibit DevS autokinase activity to varying degrees

ITNPDPY [Pep D]
inhibition of DevS autokinase activity (in words) ([1]; then ATP 1 h): inhibit DevS autokinase activity to varying degrees

KDIKGME [DevRS A, DevR mimetic peptide KDIKGME]
% Inhibition of reporter activity, Rv3134c promoter ([2]; peptide 2.5 mM): 30%
% Inhibition of reporter activity, Rv3134c promoter ([2]; peptide 5 mM): ~ 45%
% Inhibition of reporter activity, sigA promoter ([3]; aerobic): 6%
% Inhibition of reporter activity, sigA promoter ([3]; hypoxic): ~ 14%

SLFRDWP [Pep C]
% Inhibition of autokinase activity ([1]; Pep peptide 5 mM): 0%
inhibition of DevS autokinase activity (in words) ([1]; then ATP 1 h): did not inhibit autokinase activity at any of the concentrations tested
% Inhibition of autokinase activity ([1]; peptide 3 mM): 0%

TFESYSL [Pep B]
inhibition of DevS autokinase activity (in words) ([1]; then ATP 1 h): inhibit DevS autokinase activity to varying degrees

VRLPD [DevRS D, DevR mimetic peptide VRLPD]
CFU: % Inhibition of Viability [4]: ≤ 10%
inhibition of Rv3134c promoter activity ([2]; […]): 20-30%
inhibition of Rv3134c promoter activity ([2]; hypoxic conditions): ~40%
inhibition of viability, REMA [5]: ≤ 15%
inhibition of DevS autokinase activity ([1]; DevRS peptide 5 mM, preincubated with DevS201 30 mins at 25°C, then ATP 1 h, mean of two independent experiments): 37%
Percentage cytotoxicity [6]: 20-40%
Percentage cytotoxicity [7]: 20-40%
inhibition of sigA promoter activity (in words) [3]: did not inhibit sigA promoter activity
inhibition of phosphosignal transfer from DevS ~ P to DevR (in words) [8]: neither DevRS A-ext nor DevRS D inhibited this reaction
